Consider 4 compounds from patent US11661396B2, “Crystalline forms of zuclomiphene citrate” (Apotex Inc., priority 2020, dated 2023).

The structures appear in SMILES notation. Where a name gives a salt, the structure may show the parent alone.

Data set [1] in a line: PXRD studies of capped and uncapped samples maintained in a 40° C./75% RH stability chamber. It is filed as physicochemical. As to the method:
Zuclomiphene citrate Form APO-1 can be characterized by a PXRD diffractogram comprising, among other peaks, characteristic peaks, expressed in degrees 2θ (±0.2°), at 8.8°, 9.6° and 11.7°. Preferably, the PXRD diffractogram further comprises at least three peaks, expressed in degrees 2θ (±0.2°), selected from the group consisting of 10.9°, 12.4°, 14.7°, 14.9°, 17.3°, 17.8°, 18.6°, 19.9°, 20.5°, 23.6° and 25.4°. More preferably, the PXRD diffractogram further comprises peaks, expressed in degrees 2θ (±) 0.2°, at 10.9°, 12.4°, 14.7°, 14.9°, 17.3°, 17.8°, 18.6°, 19.9°, 20.5°, 23.6° and 25.4°.
Zuclomiphene citrate Form APO-III can be characterized by a PXRD diffractogram comprising, among other peaks, characteristic peaks, expressed in degrees 2θ (±0.2°), at 8.7°, 9.8° and 10.5°. Preferably, the PXRD diffractogram further comprises at least three peaks, expressed in degrees 2θ (±0.2°), selected from the group consisting of 11.6°, 12.3°, 15.3°, 16.9°, 18.0°, 18.6°, 19.4°, 20.4°, 21.0° and 24.5°. More preferably, the PXRD diffractogram further comprises peaks, expressed in degrees 2θ (±0.2°), at 11.6°, 12.3°, 15.3°, 16.9°, 18.0°, 18.6°, 19.4°, 20.4°, 21.0° and 24.5°. […]
PXRD diffractograms were recorded on a Bruker D8 Discover powder X-ray diffractometer (Bruker-AXS, Karlsruhe, Germany). […] Raw data were evaluated using the program EVA (Bruker-AXS, Karlsruhe, Germany).

Data set [2] is described as follows: Thermodynamic stability of the crystalline form. The data set is classed as physicochemical. From the text:
Zuclomiphene citrate Form APO-IV can be prepared by gradual addition of a solution of citric acid in a suitable solvent, preferably an alcohol or ketone solvent such as methanol or acetone, to a solution of zuclomiphene free base in a suitable solvent, preferably an alcohol solvent such as 2-methyl-1-propanol or 1-butanol, more preferably an ester solvent, such as ethyl acetate. Preferably, the solution of zuclomiphene free base is heated to an elevated temperature prior to addition of the citric acid solution, preferably in the range of about 50° C. to about 70° C. Following addition, the resulting mixture is preferably charged with Form APO-IV seeds and maintained at elevated temperature for a time (′aged), preferably in the range of about 16 hours to about 4 days, more preferably in the range of about 16 hours to about 48 hours. Following aging, the resulting mixture is preferably cooled to a temperature in the range of about 0° C. to about 35° C., most preferably room temperature, prior to isolation of the solid by filtration and drying, if necessary. Drying can be conducted in vacuo, preferably at a temperature in the range of about 50° C. to about 70° C., preferably for about 18 hours to about 3 days.

Data set [3] relates to hot flashes in men with prostate cancer on androgen deprivation therapy. The note with it: 50 mg zuclomiphene citrate, interim Phase 2 clinical trial results; cited from earlier work.

`CCN(CC)CCOc1ccc(/C(=C(\Cl)c2ccccc2)c2ccccc2)cc1` [Form APO-I, zuclomiphene citrate]: in data set [1] (at least 4 weeks), the “change in the crystalline form (PXRD)” value is recorded as “no change in the crystalline form occurred”.
For the compound `CCN(CC)CCOc1ccc(/C(=C(\Cl)c2ccccc2)c2ccccc2)cc1` [Form APO-III, zuclomiphene citrate], in data set [1] (at least 8 weeks), the “change in the crystalline form (PXRD)” value is reported as “no change in the crystalline form occurred”.
With `CCN(CC)CCOc1ccc(/C(=C(\Cl)c2ccccc2)c2ccccc2)cc1` [Form APO-IV, zuclomiphene citrate], the thermodynamic stability entry in data set [2] is given as “thermodynamically stable”.
For `CCN(CC)CCOc1ccc(/C(=C(\Cl)c2ccccc2)c2ccccc2)cc1` [zuclomiphene citrate, 2-[4-[(Z)-2-chloro-1,2-diphenylethenyl]phenoxy]-N,N-diethylethanamine], the “decrease in moderate to severe hot flashes from baseline” value in data set [3] is “statistically significant decrease”.
